# Test results taken from PubChem BioAssay AID1850 (Southern Research Specialized Biocontainment Screening …, 2009).
# Several values for one entry are separate records, joined by “and”; a condition that tells them apart may be missing. Equal entries are not always repeated.
# Test system: Salmonella Typhi PhoP-promoter GFP reporter, fluorescence, 4 h
# Test: PhoP regulon inhibitors, Salmonella typhi PhoP promoter GFP reporter, confirmatory (AID 1850)
row,SMILES,IC50
1,O=C(N[C@H](CO)[C@H](O)c1ccc([N+](=O)[O-])cc1)C(Cl)Cl,4.85 µM
2,c1cc2c(cc1C1CCCCC1)c1c3n2CCN=C3CCC1,51.1 µM
3,CCn1cc(C(=O)O)c(=O)c2cc(F)c(N3CCN(S(=O)(=O)c4ccc(NC(C)=O)cc4)CC3)cc21,103 µM
4,O=C(/C=C/c1ccccc1)c1cc(Br)ccc(=O)c1O,24.5 µM
5,O=C(CC(=O)c1cc(Cl)ccc1O)c1ccccc1,19.8 µM
6,CNCCC=C1c2ccccc2CCc2ccccc21,139 µM
7,O=C(NC(=S)NNC(=O)c1ccccc1O)c1ccco1,29.5 µM
8,Cn1c(SCC(=O)N/N=C/c2ccc([N+](=O)[O-])s2)nnc1-c1ccc(Cl)cc1,35.8 µM
9,O=C(Oc1c(Cl)cc(Cl)c2cccnc12)c1cccc([N+](=O)[O-])c1,8.4 µM
10,CCCCNC1=CC(=O)C(=O)c2ccccc21,13.8 µM
11,N=c1c2c(n(Cc3ccc(Cl)c(Cl)c3)c3c1CCC3)CCCC2,37.4 µM
12,O=C(N/N=C/c1ccc([N+](=O)[O-])s1)c1cccnc1,24 µM
13,CCn1cc(C(=O)O)c(=O)c2cc(F)c(N3CCN(C)CC3)cc21,0.43 µM
14,O=C(N/N=C/c1ccc([N+](=O)[O-])o1)C(O)c1ccccc1 (stereo unspecified),35.2 µM
15,O[C@@H](c1cc(C(F)(F)F)nc2c(C(F)(F)F)cccc12)[C@H]1CCCCN1,40.3 µM
16,CCn1nc(C(=O)O)c(=O)c2cc3c(cc21)OCO3,34.6 µM
17,CN1CCN(C(c2ccc(Br)cc2)c2cc(Cl)c3cccnc3c2O)CC1 (stereo unspecified),68.3 µM
18,CC(C)[C@@H]1CC[C@@H](C)C[C@H]1OC(=O)C[n+]1cc(-c2ccc(Cl)cc2)n2c1CCCCC2,67.2 µM
19,Oc1c(Br)cc(Br)cc1C=Nc1ccc2[nH]ncc2c1,27.6 µM
20,CCOc1cc(CNC(C)(C)CO)cc(Br)c1OCc1ccc(Cl)cc1Cl,43.6 µM
21,Cc1ccc(-c2cc(-c3ccc(C)cc3)[n+](-c3ccccc3)c(-c3ccc(C)cc3)c2)cc1,35 µM
22,CCc1ccc(N2CC(C(=O)N/N=C/c3cc([N+](=O)[O-])ccc3O)CC2=O)cc1 (stereo unspecified),55.8 µM
23,c1ccc2cc3c(NCCN4CCOCC4)ccnc3cc2c1,77.1 µM

row,SMILES,IC50
1,Cc1ccc(-c2[nH]ncc2/C=N/n2c(C)nc3ccccc3c2=O)cc1,149 µM
2,CNCC[C@H](Oc1cccc2ccccc12)c1cccs1,82 µM
3,Cc1cc(C)c2nc(C)cc(N/N=C/c3ccc(O)cc3)c2c1,36.4 µM
4,Oc1[nH]c2ccccc2c1N=NC(=S)N1CCOCC1,35.7 µM
5,COc1ccc(/C=C/C(=O)NC(=S)NNC(=O)c2cnccn2)cc1,49.8 µM
6,Oc1ccc(CN2CCCc3ccccc32)c2cccnc12,83 µM
7,CC[C@H]1OC(=O)[C@H](C)[C@@H](O[C@H]2C[C@@](C)(OC)[C@@H](O)[C@H](C)O2)[C@H](C)[C@@H](O[C@@H]2O[C@H](C)C[C@H](N(C)C)[C@H]2O)[C@](C)(O)C[C@@H](C)CN(C)[C@H](C)[C@@H](O)[C@]1(C)O,1.21 µM
8,COc1cccc(Nc2nc(NCCO)c3ccccc3n2)c1,19.9 µM
9,Cc1ccc(NC(=O)c2ccccc2)s1,75.9 µM
10,COc1ccc(C(=O)NC(=S)NNC(=O)c2cnccn2)cc1,92.4 µM
11,Cc1cccc2c1Sc1ccc(Cl)cc1CC2N1CCNCC1 (stereo unspecified),78.5 µM
12,Cc1ccc(N/C(=C\C(=O)c2ccccc2)C(=O)O)cc1,30.9 µM
13,CNCCCC1c2ccccc2C=Cc2ccccc21,136 µM
14,CCn1cc(C(=O)NCCN(C)C)c(=O)c2cc(F)c(N3CCN(C)CC3)cc21,23.2 µM
15,Cc1ccc(NC(=O)CN(C)C2CCCCC2)cc1Br,81.2 µM
16,C#CCOCCOCCOCCNc1nc(N2CCN(C(=O)CCCCCCCCCCNC(=O)[C@H]([C@@H](C)CC)n3cc(CCCCN=C(N)N)nn3)CC2)nc(N2CCN(C(=O)CCCCCCCCCCNC(=O)[C@H](CCCCN)n3cc(C)nn3)CC2)n1,35.7 µM
17,O=C(CN1C2=NCCCN2c2ccccc21)c1ccc(Br)s1,147 µM
18,CCCCOc1ccc(C(=O)OC2CC(C)N(C)CC2C)cc1 (stereo unspecified),86.3 µM
19,CCc1ccc(-c2nn(-c3ccccc3)cc2CSC(=N)N)cc1,32.7 µM
20,COc1ccccc1Nc1c2ccccc2nc2ccccc12,36.3 µM
21,C[C@H]1O[C@@H](n2cc(F)c(=O)[nH]c2=O)[C@H](O)[C@@H]1O,32.2 µM
22,O=c1[nH]c(-c2ccccn2)nc(C(F)(F)F)c1Br,70.2 µM
23,CCN(CCC(=O)Nc1ccc(Br)c(C)c1)Cc1ccccc1,75.1 µM

row,SMILES,IC50
1,Cc1[nH]c2ccc(OC(F)(F)F)cc2c1CCNCc1ccc(Cl)cc1,22.1 µM
2,O=C(N/N=C\C=C\c1ccc([N+](=O)[O-])o1)c1cccs1,18.7 µM
3,O=C1c2cccc3cccc(c23)C(=O)C1(O)O,48.4 µM
4,CCn1cc(C(=O)O)c(=O)c2cc(F)c(N3CCN(C(=S)NC(=O)c4ccccc4F)CC3)cc21,55.1 µM
5,O=C(Nc1ccc(Cl)cc1)Nc1ccc2c(c1)N1CCN=C1S2,68.5 µM
6,Cc1ccc(-c2c[n+](CC(=O)Nc3nc(-c4ccccc4)cs3)c3n2CCC3)cc1,22.1 µM
7,C[C@H]1COc2c(C3(N)CC3)c(F)cc3c(=O)c(C(=O)O)cn1c23,< 0.23 µM
8,CCCCCCCCCCOC(=O)Cn1c(COc2ccc(Cl)cc2)[n+](C)c2ccccc21,10.3 µM
9,CN1CCN(CCCN2c3ccccc3Sc3ccc(Cl)cc32)CC1,56 µM and 34.7 µM
10,Cc1ccc(C(C[N+](=O)[O-])n2nc(C)cc2C)cc1 (stereo unspecified),75.1 µM
11,CN(C)CCCNc1c2ccccc2nc2ccccc12,34.8 µM
12,Cc1ncc(CC(=O)n2cc(C(=O)c3cc(Cl)ccc3O)cn2)s1,83 µM
13,C=CCn1c(NS(=O)(=O)c2ccccc2)c(S(=O)(=O)c2ccc(C)cc2)c2nc3ccccc3nc21,50.4 µM
14,O=C(N/N=C/c1cc(O)ccc1Br)c1cccnc1,38.5 µM
15,CCCCCC(=O)NNC(=S)NC(C)=O,32.9 µM
16,O=C(Nc1ccncc1)Nc1ccc(Cl)cc1,32.8 µM
17,Cc1ccc2c(c1)sc(-c1ccc(N(C)C)cc1)[n+]2C,24.1 µM
18,Cc1cc(C(C)(C)CC(C)(C)C)ccc1OCCOCC[N+](C)(C)Cc1ccccc1,18.2 µM
19,O=C(O)c1cn(-c2ccc(F)cc2)c2cc(Cl)c(F)cc2c1=O,83.7 µM
20,CN(C)CCCn1c(SCC(=O)N2c3ccccc3Sc3ccccc32)nc2ccccc2c1=O,62.8 µM
21,Fc1ccccc1CCNCc1ccccc1,34.1 µM
22,Oc1ccc(CN2CCN(Cc3ccccc3)CC2)c2cccnc12,33.5 µM
23,COc1ccc(CNCCC(c2ccccc2)c2ccc3c(c2)OCO3)cc1 (stereo unspecified),78.7 µM

row,SMILES,IC50
1,Oc1ccc(COCc2ccccc2)c2cccnc12,37.1 µM
2,O=c1c2ccccc2[nH]c2ccc(F)cc12,75.7 µM
3,O=C(N/N=C/c1cc(Cl)ccc1O)c1cccnc1,37.6 µM
4,O=C(N/N=C/c1ccccc1O)c1ccncc1,35.9 µM
5,c1ccc(Nc2nc(NCC3CCCO3)c3ccccc3n2)cc1 (stereo unspecified),5 µM
6,CCN1CCN(C(=O)c2cc3cc(Cl)ccc3[nH]2)CC1,89.5 µM
7,O=C(Nc1ccc([N+](=O)[O-])cc1Cl)c1cc(Cl)ccc1O,123 µM
8,O=C(CNC(=O)c1ccccc1)N/N=C/c1ccc([N+](=O)[O-])s1,19.7 µM
9,CC1(C)N=C(N)NC(Nc2ccc(Br)cc2)=N1,38.8 µM
10,C#CCOCCOCCOCCNc1nc(N2CCN(C(=O)CCCCCCCCCCNC(=O)[C@H](CCCCN)n3cc(CCO)nn3)CC2)nc(N2CCN(C(=O)CCCCCCCCCCNC(=O)[C@H](CCCN=C(N)N)n3cc(C[C@@H](C)CC)nn3)CC2)n1,34.5 µM
11,OCCN1CCN(Cc2cc(Cl)c3cccnc3c2O)CC1,75.7 µM
12,Cc1ccccc1C(=O)Nc1cccc(C(=O)N/N=C/c2cc(Cl)cc([N+](=O)[O-])c2O)c1,47.6 µM
13,Fc1cccc(Nc2c3c(nc4ccccc24)CCC3)c1,54.3 µM
14,Oc1c(CN2CCN(c3ccccn3)CC2)cc(Cl)c2cccnc12,29.6 µM
15,C#CCOCCOCCOCCNc1nc(N2CCN(C(=O)[C@H](Cc3cc4ccccc4[nH]3)n3cc([C@@H](N)CC(C)C)nn3)CC2)nc(N2CCN(C(=O)[C@H](Cc3cc4ccccc4[nH]3)n3cc([C@@H](N)CC(C)C)nn3)CC2)n1,39.9 µM
16,CCCCCOc1ccc(CSC(=N)N)cc1[N+](=O)[O-],57.7 µM
17,CN(C)CCNC(=O)/C(=C/c1ccc(-c2ccc(Cl)cc2)o1)NC(=O)c1ccccc1,78 µM
18,CCCCCC(CC(=O)NO)C(=O)NC(C(=O)N1CCCC1CO)C(C)C (stereo unspecified),15.5 µM
19,CN(C)CCCN1c2ccccc2Sc2ccc(Cl)cc21,68.6 µM and 39 µM
20,COc1c(N2CCN(C(=S)Nc3ccccc3F)C(C)C2)c(F)cc2c(=O)c(C(=O)O)cn(C3CC3)c12 (stereo unspecified),1.63 µM
21,CCCCC(=O)NNC(=S)NC(=O)CCC,97.4 µM
22,CSc1ccc2c(c1)C(N1CCN(C)CC1)Cc1ccccc1S2 (stereo unspecified),39.7 µM
23,C=CC1=C(C(=O)O)N2C(=O)[C@@H](NC(=O)/C(=N/OCC(=O)O)c3csc(N)n3)[C@H]2SC1,17.3 µM

row,SMILES,IC50
1,Cc1nnc(N/N=C/c2ccccn2)[nH]c1=O,32.8 µM
2,S=C(Nc1ccc(Cl)c(Cl)c1)NC1CCN(Cc2ccccc2)CC1,33.8 µM
3,c1ccc2c(NCCc3c[nH]c4ccccc34)c3ccccc3nc2c1,36.3 µM
4,Cc1c(CN(C)C)c2c(n1Cc1ccccc1)C(=O)c1ccc(Br)cc1-2,76.5 µM
5,CNC[C@@H](Cc1ccccc1)NC[C@@H](CC1CCCCC1)NCCCc1ccccc1,38.2 µM
6,c1ccc2c(c1)C(=NC1CCCCC1)NC2=NC1CCCCC1,65.6 µM
7,Cn1ncnc2c(=O)n(C)c(=O)nc1-2,1.29 µM
8,CN1CCC(OC(=O)c2ccc(Cl)cc2Cl)CC1,146 µM
9,NC(N)=N/N=C/c1ccc(OCc2ccc(Cl)cc2)cc1,35.6 µM
10,Cc1cccc(Nc2c3c(nc4ccccc24)CCC3)c1,34.7 µM
11,CCn1cc(C(=O)O)c(=O)c2cc(F)c(N3CCN(C(=S)NC(=O)c4cccc(F)c4)CC3)cc21,18.6 µM
12,O=C(Nc1cccc(N=Cc2cc(Cl)cc(Br)c2O)c1)c1ccco1,96.9 µM
13,N=c1c2c(n(Cc3ccc(Cl)cc3)c3c1CCC3)CCC2,80.3 µM
14,CCOC(=O)N1CCN(CCC(=O)c2ccc(Cl)cc2)CC1,77.2 µM
15,Cc1ccccc1C(=O)N/N=C/c1ccc([N+](=O)[O-])s1,35.5 µM
16,COc1ccc(N2CC(C(=O)N/N=C/c3cc([N+](=O)[O-])ccc3O)CC2=O)cc1 (stereo unspecified),134 µM
17,Oc1ccccc1-c1cc(C(F)(F)C(F)F)[nH]n1,80.3 µM
18,C[C@H]1c2cccc(O)c2C(O)=C2C(=O)[C@]3(O)C(O)=C(C(N)=O)C(=O)[C@@H](N(C)C)[C@@H]3[C@@H](O)[C@@H]21,3.98 µM
19,CCCCCCCSc1cc(OC)c(CCNC)cc1OC,35.9 µM
